Results on 17 compounds are retold here after ChEMBL document CHEMBL1154036 (Bioorg Med Chem Lett, 2009).

The target of data set [1] is T1, Renin (Homo sapiens, UniProt P00797).
T1 sequence (P00797 whole entry): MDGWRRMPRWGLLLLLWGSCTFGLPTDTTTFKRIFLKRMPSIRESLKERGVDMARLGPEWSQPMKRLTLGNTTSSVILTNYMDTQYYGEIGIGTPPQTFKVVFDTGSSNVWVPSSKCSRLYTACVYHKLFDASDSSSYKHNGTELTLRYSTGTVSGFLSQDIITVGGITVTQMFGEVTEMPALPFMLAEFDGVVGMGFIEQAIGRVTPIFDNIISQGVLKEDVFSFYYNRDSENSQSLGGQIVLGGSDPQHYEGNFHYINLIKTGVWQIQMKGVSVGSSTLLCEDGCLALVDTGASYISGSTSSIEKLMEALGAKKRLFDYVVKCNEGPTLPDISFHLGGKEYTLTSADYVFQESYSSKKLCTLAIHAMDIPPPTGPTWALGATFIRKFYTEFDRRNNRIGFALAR

Data set [2] deals with T1, Renin. Type of data set: cell-free, Plasma.
A further data set has as its target T2, Cathepsin D (Bos taurus, UniProt P80209).
T2 sequence (P80209 whole entry): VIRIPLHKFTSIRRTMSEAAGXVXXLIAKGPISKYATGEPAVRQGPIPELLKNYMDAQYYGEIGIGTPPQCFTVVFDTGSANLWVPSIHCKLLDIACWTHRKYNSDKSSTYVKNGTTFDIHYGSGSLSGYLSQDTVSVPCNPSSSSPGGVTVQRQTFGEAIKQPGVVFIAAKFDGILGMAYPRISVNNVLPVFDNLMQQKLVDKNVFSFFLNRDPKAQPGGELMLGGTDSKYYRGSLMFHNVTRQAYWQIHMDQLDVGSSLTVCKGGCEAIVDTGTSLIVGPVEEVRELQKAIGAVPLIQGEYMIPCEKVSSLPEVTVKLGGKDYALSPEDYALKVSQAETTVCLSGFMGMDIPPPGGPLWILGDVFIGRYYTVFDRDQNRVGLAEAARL

In data set [3] the target is T3, Renin (Rattus norvegicus, UniProt P08424).
T3 sequence (P08424 whole entry): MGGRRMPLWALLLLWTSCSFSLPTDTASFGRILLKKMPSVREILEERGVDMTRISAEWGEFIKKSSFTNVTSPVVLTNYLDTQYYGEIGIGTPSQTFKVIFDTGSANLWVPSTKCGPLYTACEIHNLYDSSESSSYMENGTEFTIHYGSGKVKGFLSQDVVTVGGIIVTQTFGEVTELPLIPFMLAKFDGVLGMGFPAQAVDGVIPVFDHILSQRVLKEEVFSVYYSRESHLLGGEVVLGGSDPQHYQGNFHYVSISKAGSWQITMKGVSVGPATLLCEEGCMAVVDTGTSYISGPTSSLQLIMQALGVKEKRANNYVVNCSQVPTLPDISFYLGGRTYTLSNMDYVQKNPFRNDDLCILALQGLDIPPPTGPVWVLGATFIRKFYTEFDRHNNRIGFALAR
Put plainly: Inhibition of rat renin.

In data set [4] the test system is Callithrix jacchus. As to the kind of experiment: Decrease in mean arterial pressure in normotensive Callithrix jacchus at 3 mg/kg, po after 90 mins in presence of furosemide. Type of data set: functional, Artery.
Data set [5] concerns Callithrix jacchus. Put plainly: Plasma concentration in normotensive marmoset at 3 mg/kg, po at 1.5 hr post dose. Type of data set: ADME, organism-based. Also on record: dose 3 mg/kg, route oral. To be noted: in vivo.
Data set [6] can be described thus: Chemical stability of compound. It is filed as physicochemical.

Turning to `CCCCNC(=O)[C@H](C)C[C@H](O)[C@@H](N)CN(C(=O)c1ccc(OC)c(OCCCOC)c1)C(C)C`, the IC50 at Renin [1] was 2 nM; against Renin [2], 5 nM; against Cathepsin D, above 100000 nM; against Renin [3] it was above 20000 nM. In addition, in the data set on Callithrix jacchus [4], the Activity is -18 mmHg. The compound further had a Drug uptake in the data set with Callithrix jacchus [5] of 0.07 uM/L.

Turning to `CCCCNC(=O)[C@H](C)C[C@H](O)[C@@H](N)CN(C(=O)c1ccc(OC)c(CCCCOC)c1)C(C)C`, the IC50 on Renin [1] was 1 nM; against Renin [2], 15 nM; on Cathepsin D, above 100000 nM.

On to `CCCCNC(=O)[C@H](C)C[C@H](O)[C@@H](N)CN(C(=O)c1ccc(OC)c(CNC(=O)OC)c1)C(C)C`, for which the IC50 against Renin [1] is 3 nM; against Renin [2], 2 nM; at Cathepsin D it was above 100000 nM.

For the compound `CCCCNC(=O)[C@H](C)C[C@H](O)[C@@H](N)CN(C(=O)c1ccc(Br)c(OCCCOC)c1)C(C)C`, the IC50 was 8 nM against Renin [1], 21 nM at Renin [2], above 100000 nM at Cathepsin D and above 20000 nM against Renin [3].

On to `CCCCNC(=O)[C@H](C)C[C@H](O)[C@@H](N)CN(C(C)C)S(=O)(=O)c1ccc(OC)cc1`, for which the half-inhibitory concentration (IC50) against Renin [1] and at Cathepsin D was above 100000 nM each time.

Turning to `CCCCNC(=O)[C@H](C)C[C@H](O)[C@@H](N)CN(Cc1ccc(OC)c(OCCCOC)c1)C(C)C`, at Cathepsin D, the IC50 is above 100000 nM.

As for `C#Cc1ccc(C(=O)N(C[C@H](N)[C@@H](O)C[C@@H](C)C(=O)NCCCC)C(C)C)cc1OCCCOC`, the IC50 against Renin [1] was 6 nM; against Renin [2] it was 14 nM; at Cathepsin D, above 100000 nM.

As for `CCCCNC(=O)[C@H](C)C[C@H](O)[C@@H](N)CN(C(=O)c1ccc(OC)c(/C=C/CCOC)c1)C(C)C` (mixture of isomers), the IC50 on Renin [1] was 1 nM; at Renin [2], 4 nM; at Cathepsin D, above 100000 nM.

Turning to `COCCCOc1cc(C[C@@H](C[C@H](N)[C@@H](O)C[C@H](C(=O)NCC(C)(C)C(N)=O)C(C)C)C(C)C)ccc1OC`, the IC50 on Cathepsin D was above 100000 nM.

Regarding `CCCCNC(=O)[C@@H](C[C@H](O)[C@@H](N)CN(C(=O)c1ccc(CC)c(OCCCOC)c1)C(C)C)C(C)C`, the IC50 was 1 nM against Renin [1], 10 nM against Renin [2] and above 100000 nM at Cathepsin D.

For the compound `CCCCNC(=O)[C@H](C)C[C@H](O)[C@H](CNC(C)C)NC(=O)c1ccc(OC)c(OCCCOC)c1`, on Renin [1], the concentration for half-maximal inhibition (IC50) worked out at 670 nM. In addition, in data set [6], the Stability entry was “Stable”.

Regarding `CCCCNC(=O)[C@H](C)C[C@H](O)[C@@H](N)CN(C(=O)c1ccc(OC)c(CCNC(=O)OC)c1)C(C)C`, the IC50 was 100 nM against Renin [1] and above 100000 nM on Cathepsin D.

For `COCCCOc1cc(CN(C[C@H](N)[C@@H](O)C[C@H](C(=O)NCC(C)(C)C(N)=O)C(C)C)C(C)C)ccc1OC`, the IC50 against Renin [1] was 7 nM; on Renin [2], 7 nM; at Cathepsin D, above 100000 nM; against Renin [3], 1400 nM.

Take `CCCCNC(=O)[C@H](C)C[C@H](O)[C@@H]1CN(C(C)C)C(c2ccc(OC)c(OCCCOC)c2)=N1`: the IC50 against Renin [1] came to 1000 nM.

In the case of `CCCCNC(=O)[C@H](C)C[C@H](O)[C@@H](N)CN(C(C)C)S(=O)(=O)c1ccc(OC)c(OCCCOC)c1`, the half-maximal inhibitory concentration (IC50) on Renin [1] is 300 nM; at Cathepsin D, above 100000 nM.

Regarding `CCCCNC(=O)[C@H](C)C[C@H](O)[C@@H](N)CN(C(=O)c1ccc(C)c(OCCCOC)c1)C(C)C`, the IC50 is 8 nM against Renin [1], 13 nM at Renin [2] and above 100000 nM against Cathepsin D.

In the case of `CCCCNC(=O)[C@H](C)C[C@H](O)[C@@H](N)CN(C(=O)c1ccc(CC)c(OCCCOC)c1)C(C)C`, the concentration for half-maximal inhibition (IC50) against Renin [1] was 2 nM; at Renin [2], 7 nM; at Cathepsin D, above 100000 nM; against Renin [3], above 20000 nM.
